# Results reported in patent EP0535528A1, “Antibacterial 5-Nitro-1-methyl-imidazolyl-3-terbutyl-2-hydroxy-aryl-carbinols” (EURORESEARCH S.r.L., priority 1991, dated 1993).
# Assays:
# [1] = tested on: Swiss female albino mice; assay: Oral and intraperitoneal acute toxicity in mice (LD50, Probits method); assay type: in vivo; details: mice
# Description: 20 Swiss female albino mice are used for this test of the average weight of 20 g (±2), coming from Nossan breeding .
# Cages: in Makrolon® with saw dust litter, Number of animals per cage: 5 Acclimation period: 1 week Temperature: 22°C (± 2°C) Humidity : 60%, Diet: pellets for mice produced by Nossan firm, Water ad libitum Fast before the treatment: 16 hours
# Oral by gastric route and intraperitoneal.
# The substances to be studied: EU11100, EU11102, EU11103, EU11104 are treated with 0.5% carboxymethylcellulose in spring water, for the oral administration, whereas the same substances are intraperitoneally administered in the form of a physiological solution .
# For each of the above mentioned substances, a mother suspension is prepared having a concentration in the active ingredient of 250 mg/ml for the oral administration, and analogously a mother suspension is prepared for the intraperitoneal administration having a concentration of the desired active principle of 100 mg/ml.
# The following doses are used • a) oral route: 5000 mg/kg • b) intraperitoneal route : 2000 mg/kg
# If mortality is observed at the above mentioned doses, other doses are administered in order to obtain a dose-response curve.
# 5 animals are used for every utilized concentration.
# After the administration of the above substances the animals are kept under observation for 14 days , during which the mortality and the behaviour is observed.
# LD₅₀ is determined on the base of the cumulative mortality observed in the successive 14 days after the administration by using the Probits method.
# [2] = tested on: Helicobapter pylori; assay: Inhibition halos of the bacterial growth (impregnated disks on agar); assay type: cell-based; details: for activity against the Helicobapter pylori strains used: 10 strains; for Inhibition halo (mm), Average: average of 10 strains
# Description: Comparison substance: Metronidazole Solubilization of the substances : All the substances to be studied are dissolved at room temperature in DMSO.
# Some commercially available antibiogram disks are so impregnated with the above mentioned compounds that each disk has concentration equal to 10, 1, 0.1, 0.01 µg.
# 10 strains of Helicobapter pylori are used of recent clinical isolation.
# Columbia Blood Agar Base is used, containing 5% of defibrinated horse blood, 2 % of calf serum, 2 vials of Vitox per liter of medium and Vancomicine (10 µg/ml) Trimetoprim lactate(5 µg/ml) and Polimixin B (2.5 U/ml).
# 0.1 ml of a suspension of the different used strains are uniformly distributed onto Petri plates, containing 20 ml of Columbia Blood Agar base, obtained by taking a sample, by means of a platinum loop, of different colonies from a 48 hours culture, grown in anaerobiosis jars with "Gas Pack", without a catalyst and diluted into a physiological solution.
# 4 disks per plate, previously impregnated with the substances under examination, are then placed onto the agar layer of each plate.
# After 48 hours of anaerobiosis incubation, as above described, the inhibition halos of the bacterial growth, produced by the different activity of the substances inside the agar, are evaluated.
# [3] = tested on: Helicobapter pylori; assay: Minimal inhibiting concentration (agar dilution); assay type: cell-based; details: for MIC50 / MIC90 / MIC range: 10 strains
# Description: Substances under examination: EU11100, EU11102, EU11103, EU11104. Comparison substance: Metronidazole Solubilization of the substances: All the substances to be studied are dissolved at room temperature in DMSO. […] 10 strains of Helicobapter pylori are used of recent clinical isolation […] The sowing of the bacteria, prepared as described in the preceding test is carried out by means a "multi-point inoculator". After 48 hours incubation under the condition described in the preceding test, the plates are examined and the Minimal Inhibiting Concentration is evaluated, namely that dose corresponding to growth absence.
smiles,measurement,setting,value
"Cn1c([N+](=O)[O-])cnc1C(O)c1cc(C(C)(C)C)cc(C(C)(C)C)c1O (stereo not shown) [EU11102, 5-nitro-1-methyl-imidazolyl-3,5-diterbutyl-2-hydroxy-phenyl-carbinol]",toxicity when intraperitoneally administered,"[1]; intraperitoneal, 2000 mg/kg",not toxic
same,toxicity when orally administered,"[1]; oral, 5000 mg/kg",not toxic
same,activity against the Helicobapter pylori strains used,[2]; 1 µg/disk,active against all the Helicobapter pylori used
same,activity against the Helicobapter pylori strains used,[2]; disk test,active against all the Helicobapter pylori strains used
same,"Inhibition halo (mm), Average",[2]; 1 µg/disk,15.1 mm
same,"Inhibition halo (mm), Average",[2]; 10 µg/disk,22.9 mm
same,Inhibition halo (mm) at the concentration (µg/disk),"[2]; strain 1, 0.01 µg/disk",0 mm
same,Inhibition halo (mm) at the concentration (µg/disk),"[2]; strain 1, 0.1 µg/disk",0 mm
same,Inhibition halo (mm) at the concentration (µg/disk),"[2]; strain 1, 1 µg/disk",15 mm
same,Inhibition halo (mm) at the concentration (µg/disk),"[2]; strain 1, 10 µg/disk",23 mm
same,Inhibition halo (mm) at the concentration (µg/disk),"[2]; strain 2, 0.01 µg/disk",0 mm
same,Inhibition halo (mm) at the concentration (µg/disk),"[2]; strain 2, 0.1 µg/disk",0 mm
same,Inhibition halo (mm) at the concentration (µg/disk),"[2]; strain 2, 10 µg/disk",22 mm
same,Inhibition halo (mm) at the concentration (µg/disk),"[2]; strain 3, 0.01 µg/disk",0 mm
same,Inhibition halo (mm) at the concentration (µg/disk),"[2]; strain 3, 0.1 µg/disk",0 mm
same,Inhibition halo (mm) at the concentration (µg/disk),"[2]; strain 3, 1 µg/disk",12 mm
same,Inhibition halo (mm) at the concentration (µg/disk),"[2]; strain 3, 10 µg/disk",22 mm
same,Inhibition halo (mm) at the concentration (µg/disk),"[2]; strain 4, 0.01 µg/disk",0 mm
same,Inhibition halo (mm) at the concentration (µg/disk),"[2]; strain 4, 0.1 µg/disk",0 mm
same,Inhibition halo (mm) at the concentration (µg/disk),"[2]; strain 4, 1 µg/disk",16 mm
same,Inhibition halo (mm) at the concentration (µg/disk),"[2]; strain 4, 10 µg/disk",24 mm
same,Inhibition halo (mm) at the concentration (µg/disk),"[2]; strain 5, 0.01 µg/disk",0 mm
same,Inhibition halo (mm) at the concentration (µg/disk),"[2]; strain 5, 0.1 µg/disk",0 mm
same,Inhibition halo (mm) at the concentration (µg/disk),"[2]; strain 5, 1 µg/disk",16 mm
same,Inhibition halo (mm) at the concentration (µg/disk),"[2]; strain 5, 10 µg/disk",22 mm
same,Inhibition halo (mm) at the concentration (µg/disk),"[2]; strain 6, 0.01 µg/disk",0 mm
same,Inhibition halo (mm) at the concentration (µg/disk),"[2]; strain 6, 0.1 µg/disk",0 mm
same,Inhibition halo (mm) at the concentration (µg/disk),"[2]; strain 6, 1 µg/disk",17 mm
same,Inhibition halo (mm) at the concentration (µg/disk),"[2]; strain 6, 10 µg/disk",25 mm
same,Inhibition halo (mm) at the concentration (µg/disk),"[2]; strain 7, 0.01 µg/disk",0 mm
same,Inhibition halo (mm) at the concentration (µg/disk),"[2]; strain 7, 0.1 µg/disk",0 mm
same,Inhibition halo (mm) at the concentration (µg/disk),"[2]; strain 7, 1 µg/disk",14 mm
same,Inhibition halo (mm) at the concentration (µg/disk),"[2]; strain 7, 10 µg/disk",21 mm
same,Inhibition halo (mm) at the concentration (µg/disk),"[2]; strain 8, 0.01 µg/disk",0 mm
same,Inhibition halo (mm) at the concentration (µg/disk),"[2]; strain 8, 0.1 µg/disk",0 mm
same,Inhibition halo (mm) at the concentration (µg/disk),"[2]; strain 8, 1 µg/disk",15 mm
same,Inhibition halo (mm) at the concentration (µg/disk),"[2]; strain 8, 10 µg/disk",23 mm
same,Inhibition halo (mm) at the concentration (µg/disk),"[2]; strain 9, 0.01 µg/disk",0 mm
same,Inhibition halo (mm) at the concentration (µg/disk),"[2]; strain 9, 0.1 µg/disk",0 mm
same,Inhibition halo (mm) at the concentration (µg/disk),"[2]; strain 9, 1 µg/disk",16 mm
same,Inhibition halo (mm) at the concentration (µg/disk),"[2]; strain 9, 10 µg/disk",24 mm
same,Inhibition halo (mm) at the concentration (µg/disk),"[2]; strain 10, 0.01 µg/disk",0 mm
same,Inhibition halo (mm) at the concentration (µg/disk),"[2]; strain 10, 0.1 µg/disk",0 mm
same,Inhibition halo (mm) at the concentration (µg/disk),"[2]; strain 10, 1 µg/disk",15 mm
same,Inhibition halo (mm) at the concentration (µg/disk),"[2]; strain 10, 10 µg/disk",23 mm
same,MIC50,[3],0.25 µg/mL
same,MIC90,[3],0.5 µg/mL
same,MIC range,[3],0.25 to 0.5 µg/mL
same,MIC,[3]; strain 1,0.5 µg/mL
same,MIC,[3]; strain 2,0.25 µg/mL
same,MIC,[3]; strain 3,0.25 µg/mL
same,MIC,[3]; strain 4,0.5 µg/mL
same,MIC,[3]; strain 5,0.25 µg/mL
same,MIC,[3]; strain 6,0.5 µg/mL
same,MIC,[3]; strain 7,0.25 µg/mL
same,MIC,[3]; strain 8,0.25 µg/mL
same,MIC,[3]; strain 9,0.25 µg/mL
same,MIC,[3]; strain 10,0.25 µg/mL
"Cc1ncc([N+](=O)[O-])n1CCO [Metronidazole, reference compound]",activity against the Helicobapter pylori strains used,[2]; 0.1 µg/disk,inactive
same,activity against the Helicobapter pylori strains used,[2]; 1 µg/disk,inactive
same,"Inhibition halo (mm), Average",[2]; 10 µg/disk,39.5 mm
same,activity against Helicobapter pylori,"[2]; general statement, at a low concentration",poorly effective
same,Inhibition halo (mm) at the concentration (µg/disk),"[2]; strain 1, 0.01 µg/disk",0 mm
same,Inhibition halo (mm) at the concentration (µg/disk),"[2]; strain 1, 0.1 µg/disk",0 mm
same,Inhibition halo (mm) at the concentration (µg/disk),"[2]; strain 1, 1 µg/disk",0 mm
same,Inhibition halo (mm) at the concentration (µg/disk),"[2]; strain 1, 10 µg/disk",45 mm
same,Inhibition halo (mm) at the concentration (µg/disk),"[2]; strain 2, 0.01 µg/disk",0 mm
same,Inhibition halo (mm) at the concentration (µg/disk),"[2]; strain 2, 0.1 µg/disk",0 mm
same,Inhibition halo (mm) at the concentration (µg/disk),"[2]; strain 2, 1 µg/disk",0 mm
same,Inhibition halo (mm) at the concentration (µg/disk),"[2]; strain 2, 10 µg/disk",33 mm
same,Inhibition halo (mm) at the concentration (µg/disk),"[2]; strain 3, 0.01 µg/disk",0 mm
same,Inhibition halo (mm) at the concentration (µg/disk),"[2]; strain 3, 0.1 µg/disk",0 mm
same,Inhibition halo (mm) at the concentration (µg/disk),"[2]; strain 3, 1 µg/disk",0 mm
same,Inhibition halo (mm) at the concentration (µg/disk),"[2]; strain 3, 10 µg/disk",45 mm
same,Inhibition halo (mm) at the concentration (µg/disk),"[2]; strain 4, 0.01 µg/disk",0 mm
same,Inhibition halo (mm) at the concentration (µg/disk),"[2]; strain 4, 0.1 µg/disk",0 mm
same,Inhibition halo (mm) at the concentration (µg/disk),"[2]; strain 4, 1 µg/disk",0 mm
same,Inhibition halo (mm) at the concentration (µg/disk),"[2]; strain 4, 10 µg/disk",42 mm
same,Inhibition halo (mm) at the concentration (µg/disk),"[2]; strain 5, 0.01 µg/disk",0 mm
same,Inhibition halo (mm) at the concentration (µg/disk),"[2]; strain 5, 0.1 µg/disk",0 mm
same,Inhibition halo (mm) at the concentration (µg/disk),"[2]; strain 5, 1 µg/disk",0 mm
same,Inhibition halo (mm) at the concentration (µg/disk),"[2]; strain 5, 10 µg/disk",42 mm
same,Inhibition halo (mm) at the concentration (µg/disk),"[2]; strain 6, 0.01 µg/disk",0 mm
same,Inhibition halo (mm) at the concentration (µg/disk),"[2]; strain 6, 0.1 µg/disk",0 mm
same,Inhibition halo (mm) at the concentration (µg/disk),"[2]; strain 6, 1 µg/disk",0 mm
same,Inhibition halo (mm) at the concentration (µg/disk),"[2]; strain 6, 10 µg/disk",41 mm
same,Inhibition halo (mm) at the concentration (µg/disk),"[2]; strain 7, 0.01 µg/disk",0 mm
same,Inhibition halo (mm) at the concentration (µg/disk),"[2]; strain 7, 0.1 µg/disk",0 mm
same,Inhibition halo (mm) at the concentration (µg/disk),"[2]; strain 7, 1 µg/disk",0 mm
same,Inhibition halo (mm) at the concentration (µg/disk),"[2]; strain 7, 10 µg/disk",32 mm
same,Inhibition halo (mm) at the concentration (µg/disk),"[2]; strain 8, 0.01 µg/disk",0 mm
same,Inhibition halo (mm) at the concentration (µg/disk),"[2]; strain 8, 0.1 µg/disk",0 mm
same,Inhibition halo (mm) at the concentration (µg/disk),"[2]; strain 8, 1 µg/disk",0 mm
same,Inhibition halo (mm) at the concentration (µg/disk),"[2]; strain 8, 10 µg/disk",40 mm
same,Inhibition halo (mm) at the concentration (µg/disk),"[2]; strain 9, 0.01 µg/disk",0 mm
same,Inhibition halo (mm) at the concentration (µg/disk),"[2]; strain 9, 0.1 µg/disk",0 mm
same,Inhibition halo (mm) at the concentration (µg/disk),"[2]; strain 9, 1 µg/disk",0 mm
same,Inhibition halo (mm) at the concentration (µg/disk),"[2]; strain 9, 10 µg/disk",38 mm
same,Inhibition halo (mm) at the concentration (µg/disk),"[2]; strain 10, 0.01 µg/disk",0 mm
same,Inhibition halo (mm) at the concentration (µg/disk),"[2]; strain 10, 0.1 µg/disk",0 mm
same,Inhibition halo (mm) at the concentration (µg/disk),"[2]; strain 10, 1 µg/disk",0 mm
same,Inhibition halo (mm) at the concentration (µg/disk),"[2]; strain 10, 10 µg/disk",37 mm
same,MIC50,[3],0.12 µg/mL
same,MIC90,[3],0.25 µg/mL
same,MIC range,[3],0.015 to 0.25 µg/mL
same,MIC,[3]; strain 1,0.25 µg/mL
same,MIC,[3]; strain 2,0.06 µg/mL
same,MIC,[3]; strain 3,0.25 µg/mL
same,MIC,[3]; strain 4,0.25 µg/mL
same,MIC,[3]; strain 5,0.015 µg/mL
same,MIC,[3]; strain 6,0.12 µg/mL
same,MIC,[3]; strain 7,0.25 µg/mL
same,MIC,[3]; strain 8,0.25 µg/mL
same,MIC,[3]; strain 9,0.12 µg/mL
same,MIC,[3]; strain 10,0.12 µg/mL
